Laboratory results as given in US20230058623A1, “NOVEL HETEROARYL-TRIAZOLE COMPOUNDS AS PESTICIDES” (Bayer Aktiengesellschaft, priority 2019, published 2023).

Assays:
Format in all cases: in vivo
[1] = system: Rhipicephalus (Boophilus) microplus larvae (strain Parkhurst, resistant against synthetic pyrethroids); assay: Rhipicephalus (Boophilus) microplus in-vitro contact test, larval cattle tick; settings: after 48 hours, read-out: activity (efficacy: larvae dead or moribund); for pest or weed control at 1 µg/cm2, 100 g/ha: application rate 1 μg/cm^2 (=100 g/ha); for pest or weed control at 5 µg/cm2, 500 g/ha: application rate 5 μg/cm^2 (=500 g/ha)
Method: Rhipicephalus (Boophilus) microplus—In-Vitro Contact Tests Larval Cattle Tick (Strain Parkhurst, Resistant Against Synthetic Pyrethroids)
(§1) 9 mg compound is solved in 1 ml acetone and diluted with acetone to the desired concentration. 250 μL of the test solution is filled in 25 mL glass test tubes and homogeneously distributed on the inner walls by rotation and tilting on a shaking device (2 h at 30 rpm). With a compound concentration of 900 ppm, an inner surface of 44.7 cm^2 and a homogeneous distribution, a dose of 5 μg/cm^2 is achieved.
After the solvent has evaporated, each test tube is filled with 20-50 cattle tick larvae (Rhipicephalus microplus), closed with a perforated lid and incubated in a horizontal position at 85% relative humidity and 27° C. in an incubator. After 48 hours efficacy is determined. The larvae are patted on the ground of the tubes and negative geotactic behavior is recorded.
An efficacy of 100% means all larvae are dead or moribund; 0% means no larvae are dead or moribund.

[2] = system: adult cat fleas (Ctenocephalides felis); assay: Ctenocephalides felis in-vitro contact test, adult cat flea; settings: application rate 5 μg/cm^2 (=500 g/ha), after 48 hours, read-out: activity (efficacy: fleas dead or moribund)
Method: Ctenocephalides felis—In-Vitro Contact Tests Adult Cat Flea
as §1, with “mL” for “ml”
(§2) After the solvent has evaporated, each test tube is filled with 5-10 adult cat fleas (Ctenocephalides felis), closed with a perforated lid and incubated in a lying position at room temperature and relative humidity. After 48 hours efficacy is determined. The fleas are patted on the ground of the tubes and are incubated on a heating plate at 45-50° C. for at most 5 minutes. Immotile or uncoordinated moving fleas, which are not able to escape the heat by climbing upwards, are marked as dead or moribund.
An efficacy of 100% means all fleas are dead or moribund; 0% means no fleas are dead or moribund.

[3] = system: adult brown dog ticks (Rhipicephalus sanguineus); assay: Rhipicephalus sanguineus in-vitro contact test, adult brown dog ticks; settings: application rate 5 μg/cm^2 (=500 g/ha), after 48 hours, read-out: activity (efficacy: ticks dead or moribund)
Method: Rhipicephalus sanguineus—In-Vitro Contact Tests with Adult Brown Dog Ticks
as §1, with “mL” for “ml”
as §2, with “brown dog ticks (Rhipicephalus sanguineus),” for “cat fleas (Ctenocephalides felis),”, “ticks” for “fleas”, “ticks,” for “fleas,”
An efficacy of 100% means all ticks are dead or moribund; 0% means no ticks are dead or moribund.

[4] = system: green peach aphid (Myzus persicae); assay: Myzus persicae oral test; settings: 120 h, read-out: activity (mortality)
Method: Solvent: 100 parts by weight acetone
To produce a suitable preparation of active compound, 1 part by weight of active compound is mixed with the stated amount of solvent, and the concentrate is diluted with water to the desired concentration.
50 μL compound solution is filled in microtiter plates and 150 μL IPL41 insect medium (33%+15% sugar) is added to obtain a total volume of 200 μL per well. Afterwards the plates are sealed with parafilm through which a mixed population of the green peach aphid (Myzus persicae) can suck on the compound preparation.
(§3) After 5 days mortality in % is determined. 100% means all aphids have been killed and 0% means none of the aphids have been killed.

[5] = system: green peach aphid (Myzus persicae); assay: Myzus persicae spray test; settings: foliar, 120 h, after 5 days, Chinese cabbage leaf disks; for mortality at 100 g/ha: application rate 100 g/ha, read-out: activity (mortality)
Method: Myzus persicae—Spray Test
(§4) To produce a suitable preparation of active compound, 1 part by weight of active compound is mixed with the stated amount of solvents and is diluted with water, containing an emulsifier concentration of 1000 ppm, to the desired concentration. Further test concentrations are prepared by dilution with emulsifier containing water.
Chinese cabbage (Brassica pekinensis) leaf disks infected with all instars of the green peach aphid (Myzus persicae), are sprayed with a preparation of the active ingredient of the desired concentration.
as §3

[6] = system: larvae of the banded cucumber beetle (Diabrotica balteata); assay: Diabrotica balteata spray test; settings: 168 h, application rate 100 g/ha (=32 μg/well), after 7 days, wheat seeds, read-out: activity (efficacy: seedlings grown)
Method: Diabrotica balteata—Spray Test
as §4, with “solvent,” for “solvents”, “and the concentrate” for “and”
Soaked wheat seeds (Triticum aestivum) are placed in a multiple well plate filled with agar and some water and are incubated for 1 day to germinate (5 seeds per well). The germinated wheat seeds are sprayed with a test solution containing the desired concentration of the active ingredient. Afterwards each unit is infected with 10-20 larvae of the banded cucumber beetle (Diabrotica balteata).
After 7 days efficacy in % is determined. 100% means all the seedlings have grown up like in the untreated, uninfected control; 0% means none of the seedlings have grown.

[7] = system: fall armyworm larvae (Spodoptera frugiperda); assay: Spodoptera frugiperda spray test; settings: 168 h, application rate 100 g/ha, after 7 days, maize leaf sections
Method: Spodoptera frugiperda—Spray Test
as §4
Maize (Zea mays) leaf sections are sprayed with a preparation of the active ingredient of the desired concentration. Once dry, the leaf sections are infested with fall armyworm larvae (Spodoptera frugiperda).
After 7 days mortality in % is determined. 100% means all caterpillars have been killed and 0% means none of the caterpillars have been killed.

[8] = system: adult engorged female ticks (Rhipicephalus microplus); assay: Rhipicephalus (Boophilus) microplus injection test; settings: 168 h, application rate 4 μg/tick, egg deposition after 7 days, read-out: activity (efficacy: infertile eggs)
Method: Rhipicephalus (Boophilus) microplus—Injection Test
Solvent: dimethyl sulfoxide
To produce a suitable preparation of active compound, 10 mg of active compound are dissolved in 0.5 mL solvent, and the concentrate is diluted with solvent to the desired concentration.
Five adult engorged female ticks (Rhipicephalus microplus) are injected with 1 μL compound solution into the abdomen. The ticks are transferred into replica plates and incubated in a climate chamber.
After 7 days egg deposition of fertile eggs is monitored. Eggs where fertility is not visible are stored in a climate chamber till hatching after about 42 days. An efficacy of 100% means all eggs are infertile; 0% means all eggs are fertile.

Cc1nc([C@H](C)NC(=O)c2cc(C(F)(F)F)cc(C(F)(F)F)c2)n(-c2ccc(C(=O)N3CCOCC3c3ncno3)cn2)n1 (stereo partly shown) [Example I-99] showed a pest or weed control at 1 µg/cm2, 100 g/ha [1] of 100%, a pest or weed control at 5 µg/cm2, 500 g/ha [1] of 100% and a pest or weed control at 5 µg/cm2 [2] of 100%. It also gave a pest or weed control at 5 µg/cm2, 500 g/ha [3] of 80%, a mortality at 4 ppm [4] of 100% and a mortality at 100 g/ha [5] of 90%.

With C[C@H](NC(=O)c1cc(C(F)(F)F)cc(C(F)(F)F)c1)c1ncnn1-c1ccc(C(=O)N2CCOC[C@H]2C)cn1 [Example I-71] the pest or weed control at 1 µg/cm2, 100 g/ha [1] was 100%, the pest or weed control at 5 µg/cm2, 500 g/ha [1] was 100% and the pest or weed control at 5 µg/cm2 [2] was 100%. It also gave a pest or weed control at 5 µg/cm2, 500 g/ha [3] of 80%, a pest or weed control at 32 µg/disc, 100 g/ha [6] of 100% and a mortality at 4 ppm [4] of 100%. The mortality at 100 g/ha [7] was 100%.

For CC(NC(=O)c1cc(C(F)(F)F)cc(C(F)(F)F)c1)c1nc(Br)nn1-c1ccc(C(=O)N2CCOCC2)cn1 (racemic) [Example I-86, N-[1-[5-bromo-2-[5-(morpholine-4-carbonyl)-2-pyridyl]-1,2,4-triazol-3-yl]ethyl]-3,5-bis(trifluoromethyl)benzamide], the pest or weed control at 1 µg/cm2, 100 g/ha [1] was 100%, the pest or weed control at 5 µg/cm2, 500 g/ha [1] was 100% and the pest or weed control at 5 µg/cm2, 500 g/ha [3] was 80%. It also gave a pest or weed control at 32 µg/disc, 100 g/ha [6] of 100% and a mortality at 100 g/ha [7] of 83%.

C[C@H](NC(=O)c1cc(OC(F)(F)F)cc(C2CC2)c1)c1ncnn1-c1ccc(N2CCOCC2=O)cn1 [Example I-58] gave a mortality at 500 g/ha ([5]; application rate 500 g/ha) of 90%.

In the case of C[C@H](NC(=O)c1cc(C(F)(F)F)cc(C(F)(F)F)c1)c1ncnn1-c1ccc(C(=O)N2CCOCC2c2ccnn2C)cn1 (stereo partly shown) [Example I-100], the pest or weed control at 1 µg/cm2, 100 g/ha [1] is reported as 90%, the pest or weed control at 5 µg/cm2, 500 g/ha [1] is reported as 90% and the pest or weed control at 5 µg/cm2 [2] is reported as 80%. For the same molecule, the pest or weed control at 32 µg/disc, 100 g/ha [6] was 100% and the mortality at 100 g/ha [7] was 83%.

With C[C@H](NC(=O)c1cc(Cl)cc(C(F)(F)F)c1)c1ncnn1-c1ccc(N2CCOCC2)cn1 [Example I-43] the pest or weed control at 1 µg/cm2, 100 g/ha [1] was 100%, the pest or weed control at 5 µg/cm2, 500 g/ha [1] was 100% and the pest or weed control at 5 µg/cm2, 500 g/ha [3] was 100%. The pest or weed control at 32 µg/disc, 100 g/ha [6] was 100%.

Molecule Cc1nc([C@H](C)NC(=O)c2cc(C(F)(F)F)cc(C(F)(F)F)c2)n(-c2ncc(C(=O)N3CCCC3)s2)n1 [Example I-16, N-[(1S)-1-{3-methyl-1-[5-(pyrrolidin-1-ylcarbonyl)-1,3-thiazol-2-yl]-1H-1,2,4-triazol-5-yl}ethyl]-3,5-bis(trifluoromethyl)benzamide] has a pest or weed control at 1 µg/cm2, 100 g/ha [1] of 100%, a pest or weed control at 5 µg/cm2, 500 g/ha [1] of 100% and a pest or weed control at 0.004 mg [8] of 80%. It also gave a pest or weed control at 32 µg/disc, 100 g/ha [6] of 100%, a mortality at 4 ppm [4] of 100% and a mortality at 100 g/ha [7] of 100%.

C[C@H](NC(=O)c1cc(Cl)cc(C(F)(F)F)c1)c1ncnn1-c1ccc(N2CCSCC2=O)cn1 [Example I-55] showed a pest or weed control at 5 µg/cm2 [2] of 80% and a mortality at 4 ppm [4] of 100%.

Molecule Cc1nc([C@H](C)NC(=O)c2cc(Cl)cc(C(F)(F)F)c2)n(-c2ccc(C(=O)N3CC[C@H](O)C3)cn2)n1 [Example I-25] has a pest or weed control at 0.004 mg [8] of 100% and a mortality at 4 ppm [4] of 100%.

C[C@@H]1CN(C(=O)c2cnc(-n3ncnc3[C@H](C)NC(=O)c3cc(OC(F)(F)F)cc(C4CC4)c3)nc2)C[C@H](C)O1 [Example I-148] was tested, and the pest or weed control at 32 µg/disc, 100 g/ha [6] was 100%, the mortality at 100 g/ha [5] was 90% and the mortality at 100 g/ha [7] was 100%.

Cc1nc([C@H](C)NC(=O)c2cc(Br)cc(OC(F)(F)F)c2)n(-c2ncc(C(=O)N3CCOCC3)s2)n1 [Example I-136] gave a pest or weed control at 1 µg/cm2, 100 g/ha [1] of 100%, a pest or weed control at 5 µg/cm2, 500 g/ha [1] of 100% and a pest or weed control at 5 µg/cm2, 500 g/ha [3] of 100%. The mortality at 100 g/ha [7] was 100%.

For Cc1nc([C@H](C)NC(=O)c2cc(Cl)cc(C(F)(F)F)c2)n(-c2ccc(C(=O)N3CC[C@@H](O)C3)cn2)n1 [Example I-26], the pest or weed control at 0.004 mg [8] was 100% and the mortality at 4 ppm [4] was 100%.

Molecule C[C@H](NC(=O)c1cc(OC(F)(F)F)cc(C2CC2)c1)c1ncnn1-c1ccc(C(=O)N2CCOC[C@@H]2C)cn1 [Example I-66] has a pest or weed control at 1 µg/cm2, 100 g/ha [1] of 100%, a pest or weed control at 5 µg/cm2, 500 g/ha [1] of 100% and a pest or weed control at 5 µg/cm2 [2] of 100%. It also gave a pest or weed control at 32 µg/disc, 100 g/ha [6] of 100% and a mortality at 100 g/ha [7] of 83%.

C[C@@H]1CN(C(=O)c2ccc(-n3ncnc3[C@H](C)NC(=O)c3cc(Cl)cc(S(C)(=O)=O)c3)nc2)C[C@H](C)O1 [Example I-53] was tested, and the pest or weed control at 5 µg/cm2 [2] was 100%, the mortality at 4 ppm [4] was 100% and the mortality at 100 g/ha [7] was 100%.

Cc1nc([C@H](C)NC(=O)c2cc(C(F)(F)F)cc(C(F)(F)F)c2)n(-c2ccc(C(=O)N3C[C@@H](C)O[C@@H](C)C3)nn2)n1 [Example I-139] was tested, and the pest or weed control at 1 µg/cm2, 100 g/ha [1] was 100%, the pest or weed control at 5 µg/cm2, 500 g/ha [1] was 100% and the pest or weed control at 5 µg/cm2, 500 g/ha [3] was 100%. For the same molecule, the pest or weed control at 32 µg/disc, 100 g/ha [6] was 100%.

Molecule C[C@H](NC(=O)c1cc(OC(F)(F)F)cc(C2CC2)c1)c1ncnn1-c1ccc(N2CCOCC2)cn1 [Example I-104] has a pest or weed control at 1 µg/cm2, 100 g/ha [1] of 100%, a pest or weed control at 5 µg/cm2, 500 g/ha [1] of 100% and a pest or weed control at 5 µg/cm2 [2] of 90%. It also gave a pest or weed control at 32 µg/disc, 100 g/ha [6] of 100% and a mortality at 100 g/ha [5] of 90%.

C[C@H](NC(=O)c1cc(C(F)(F)F)cc(C(F)(F)F)c1)c1ncnn1-c1ccc(C(=O)N(C)C2CCOCC2)cn1 [Example I-110] was tested, and the pest or weed control at 1 µg/cm2, 100 g/ha [1] was 100%, the pest or weed control at 5 µg/cm2, 500 g/ha [1] was 100% and the pest or weed control at 5 µg/cm2 [2] was 100%. For the same molecule, the mortality at 4 ppm [4] was 100%, the mortality at 100 g/ha [5] was 90% and the mortality at 100 g/ha [7] was 100%.
